# Measured values reported in ChEMBL document CHEMBL1141528, “Identification of pyrrolo[2,1-f][1,2,4]triazine-based inhibitors of Met kinase” (Bioorg Med Chem Lett, 2008).
# Experiments:
# [1] = Antiproliferative activity against human GTL16 cells after 72 hrs by tetrazolium-based colorimetric assay; settings: GTL 16, 72 h
# [2] = target: Hepatocyte growth factor receptor (Homo sapiens, UniProt P08581); assay: Inhibition of human recombinant c-Met expressed in insect cell-baculovirus expression system
# [3] = target: Insulin receptor (Homo sapiens, UniProt P06213); assay: Inhibition of InsR
# [4] = target: Tyrosine-protein kinase Lck (Homo sapiens, UniProt P06239); assay: Inhibition of lck
# [5] = target: Insulin-like growth factor 1 receptor (Homo sapiens, UniProt P08069); assay: Inhibition of IGF1R
# [6] = target: MAP kinase-activated protein kinase 2 (Homo sapiens, UniProt P49137); assay: Inhibition of MK2
# [7] = target: Receptor tyrosine-protein kinase erbB-2 (Homo sapiens, UniProt P04626); assay: Inhibition of HER2
# [8] = system: Liver; assay: Metabolic stability in mouse liver microsomes; type: ADME, Microsome
# [9] = Permeability across human Caco-2 cells; type: ADME, cell-based; settings: read-out: permeability
# [10] = target: Vascular endothelial growth factor receptor 2 (Homo sapiens, UniProt P35968); assay: Inhibition of VEGFR2
# [11] = Bioavailability in mouse at 20 mg/kg, ip; type: ADME, organism-based; settings: in vivo
# [12] = Metabolic stability per 10^6 cells in mouse hepatocytes; type: ADME, cell-based, Hepatocyte
# [13] = target: High affinity nerve growth factor receptor (Homo sapiens, UniProt P04629); assay: Inhibition of TrkA
# [14] = Cmax in mouse at 50 mg/kg, po; type: ADME, organism-based; parameters: dose 50 mg/kg, route oral; settings: in vivo
# [15] = Inhibition of PKA
# [16] = Clearance in mouse at 20 mg/kg, iv; type: ADME, organism-based; parameters: dose 20 mg/kg, route intravenous; settings: in vivo
# [17] = target: Cyclin-dependent kinase 2 (Homo sapiens, UniProt P24941); assay: Inhibition of CDK2
# [18] = Inhibition of PKC
# [19] = Aqueous solubility at pH 6.5; type: physicochemical
# Sequence of Insulin receptor (P06213 28-758 limits assumed): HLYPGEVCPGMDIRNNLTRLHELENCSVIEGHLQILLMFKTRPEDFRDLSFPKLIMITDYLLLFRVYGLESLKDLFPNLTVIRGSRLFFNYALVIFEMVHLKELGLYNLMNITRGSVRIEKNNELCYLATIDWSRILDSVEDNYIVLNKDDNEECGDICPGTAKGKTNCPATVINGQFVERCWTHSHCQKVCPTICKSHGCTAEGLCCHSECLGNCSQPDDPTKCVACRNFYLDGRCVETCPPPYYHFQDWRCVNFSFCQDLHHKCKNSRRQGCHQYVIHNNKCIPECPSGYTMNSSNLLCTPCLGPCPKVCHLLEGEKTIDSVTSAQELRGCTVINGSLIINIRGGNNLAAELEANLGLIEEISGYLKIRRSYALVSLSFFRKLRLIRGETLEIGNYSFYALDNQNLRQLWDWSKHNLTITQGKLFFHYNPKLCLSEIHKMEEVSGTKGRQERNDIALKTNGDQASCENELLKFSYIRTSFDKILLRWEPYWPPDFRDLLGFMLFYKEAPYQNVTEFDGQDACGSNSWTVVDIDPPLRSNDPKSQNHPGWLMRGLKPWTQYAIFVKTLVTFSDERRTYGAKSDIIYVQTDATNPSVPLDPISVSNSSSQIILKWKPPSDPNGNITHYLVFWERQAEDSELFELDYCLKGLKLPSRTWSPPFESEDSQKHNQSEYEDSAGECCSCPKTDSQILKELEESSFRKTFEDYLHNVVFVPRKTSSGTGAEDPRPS
# Sequence of Insulin receptor (P06213 763-1382 limits assumed): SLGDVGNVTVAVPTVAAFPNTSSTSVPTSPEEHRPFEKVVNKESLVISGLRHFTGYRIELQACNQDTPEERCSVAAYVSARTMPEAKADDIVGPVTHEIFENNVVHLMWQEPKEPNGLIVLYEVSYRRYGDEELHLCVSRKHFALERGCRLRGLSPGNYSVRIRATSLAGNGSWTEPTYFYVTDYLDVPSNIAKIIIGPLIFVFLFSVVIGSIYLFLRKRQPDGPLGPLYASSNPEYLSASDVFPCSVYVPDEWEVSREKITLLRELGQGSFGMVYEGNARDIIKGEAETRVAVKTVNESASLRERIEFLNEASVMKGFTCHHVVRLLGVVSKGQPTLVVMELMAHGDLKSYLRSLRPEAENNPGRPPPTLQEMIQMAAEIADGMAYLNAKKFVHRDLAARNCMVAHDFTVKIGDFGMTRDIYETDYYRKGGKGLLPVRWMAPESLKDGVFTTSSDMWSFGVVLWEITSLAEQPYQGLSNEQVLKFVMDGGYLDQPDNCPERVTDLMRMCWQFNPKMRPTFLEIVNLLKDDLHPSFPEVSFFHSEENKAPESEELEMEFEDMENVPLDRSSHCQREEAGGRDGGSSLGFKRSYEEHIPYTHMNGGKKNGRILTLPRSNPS
# Sequence of Vascular endothelial growth factor receptor 2 (P35968 whole entry): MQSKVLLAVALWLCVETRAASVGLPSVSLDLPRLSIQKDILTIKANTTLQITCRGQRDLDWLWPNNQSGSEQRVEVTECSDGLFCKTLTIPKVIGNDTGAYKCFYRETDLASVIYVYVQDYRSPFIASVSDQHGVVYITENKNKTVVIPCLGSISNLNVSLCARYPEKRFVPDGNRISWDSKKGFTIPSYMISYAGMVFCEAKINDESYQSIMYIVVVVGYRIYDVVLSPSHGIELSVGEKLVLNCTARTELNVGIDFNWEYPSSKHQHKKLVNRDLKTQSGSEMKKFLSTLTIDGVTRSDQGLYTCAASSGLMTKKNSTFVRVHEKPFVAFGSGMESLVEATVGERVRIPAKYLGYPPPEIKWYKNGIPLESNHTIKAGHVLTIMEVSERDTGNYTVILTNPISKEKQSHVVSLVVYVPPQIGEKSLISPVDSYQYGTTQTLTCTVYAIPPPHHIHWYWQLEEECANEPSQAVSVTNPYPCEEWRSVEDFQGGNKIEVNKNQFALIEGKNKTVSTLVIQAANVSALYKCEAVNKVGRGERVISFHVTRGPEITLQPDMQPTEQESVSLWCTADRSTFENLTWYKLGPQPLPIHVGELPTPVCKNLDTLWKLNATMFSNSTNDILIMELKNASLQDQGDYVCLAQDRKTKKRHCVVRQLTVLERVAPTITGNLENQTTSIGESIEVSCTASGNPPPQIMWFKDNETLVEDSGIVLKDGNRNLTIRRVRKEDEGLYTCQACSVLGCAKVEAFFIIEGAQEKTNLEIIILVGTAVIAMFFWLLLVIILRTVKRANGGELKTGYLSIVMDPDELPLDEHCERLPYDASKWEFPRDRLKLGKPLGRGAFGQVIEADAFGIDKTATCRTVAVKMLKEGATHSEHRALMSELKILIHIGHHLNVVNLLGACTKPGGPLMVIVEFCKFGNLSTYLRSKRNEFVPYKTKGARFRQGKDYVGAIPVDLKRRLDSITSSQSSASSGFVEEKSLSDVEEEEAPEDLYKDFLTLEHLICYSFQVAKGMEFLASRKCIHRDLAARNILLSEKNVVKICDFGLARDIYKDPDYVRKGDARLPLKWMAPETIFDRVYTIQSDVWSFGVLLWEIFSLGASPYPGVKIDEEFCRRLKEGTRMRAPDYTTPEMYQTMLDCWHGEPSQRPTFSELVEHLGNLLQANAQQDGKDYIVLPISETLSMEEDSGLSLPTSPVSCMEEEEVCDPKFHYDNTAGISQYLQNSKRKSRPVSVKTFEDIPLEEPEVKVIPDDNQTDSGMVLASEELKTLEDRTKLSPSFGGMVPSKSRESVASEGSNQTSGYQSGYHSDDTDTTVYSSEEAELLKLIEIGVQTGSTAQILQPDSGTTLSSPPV
# Sequence of Tyrosine-protein kinase Lck (P06239 whole entry): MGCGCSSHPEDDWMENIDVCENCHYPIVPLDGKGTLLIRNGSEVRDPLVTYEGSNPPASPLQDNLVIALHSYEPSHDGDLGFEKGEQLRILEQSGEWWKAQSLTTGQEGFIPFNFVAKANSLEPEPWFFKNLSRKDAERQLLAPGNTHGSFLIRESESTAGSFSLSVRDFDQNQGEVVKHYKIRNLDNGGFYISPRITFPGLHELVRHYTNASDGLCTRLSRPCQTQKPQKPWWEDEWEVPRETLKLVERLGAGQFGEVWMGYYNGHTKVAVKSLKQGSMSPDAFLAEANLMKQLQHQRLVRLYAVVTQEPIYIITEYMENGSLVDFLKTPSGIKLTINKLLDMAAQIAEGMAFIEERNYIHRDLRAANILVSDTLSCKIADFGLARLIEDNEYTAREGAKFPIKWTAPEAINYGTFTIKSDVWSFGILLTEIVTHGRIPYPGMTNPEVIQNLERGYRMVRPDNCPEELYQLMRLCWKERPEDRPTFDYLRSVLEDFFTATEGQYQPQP
# Sequence of Hepatocyte growth factor receptor (P08581 whole entry): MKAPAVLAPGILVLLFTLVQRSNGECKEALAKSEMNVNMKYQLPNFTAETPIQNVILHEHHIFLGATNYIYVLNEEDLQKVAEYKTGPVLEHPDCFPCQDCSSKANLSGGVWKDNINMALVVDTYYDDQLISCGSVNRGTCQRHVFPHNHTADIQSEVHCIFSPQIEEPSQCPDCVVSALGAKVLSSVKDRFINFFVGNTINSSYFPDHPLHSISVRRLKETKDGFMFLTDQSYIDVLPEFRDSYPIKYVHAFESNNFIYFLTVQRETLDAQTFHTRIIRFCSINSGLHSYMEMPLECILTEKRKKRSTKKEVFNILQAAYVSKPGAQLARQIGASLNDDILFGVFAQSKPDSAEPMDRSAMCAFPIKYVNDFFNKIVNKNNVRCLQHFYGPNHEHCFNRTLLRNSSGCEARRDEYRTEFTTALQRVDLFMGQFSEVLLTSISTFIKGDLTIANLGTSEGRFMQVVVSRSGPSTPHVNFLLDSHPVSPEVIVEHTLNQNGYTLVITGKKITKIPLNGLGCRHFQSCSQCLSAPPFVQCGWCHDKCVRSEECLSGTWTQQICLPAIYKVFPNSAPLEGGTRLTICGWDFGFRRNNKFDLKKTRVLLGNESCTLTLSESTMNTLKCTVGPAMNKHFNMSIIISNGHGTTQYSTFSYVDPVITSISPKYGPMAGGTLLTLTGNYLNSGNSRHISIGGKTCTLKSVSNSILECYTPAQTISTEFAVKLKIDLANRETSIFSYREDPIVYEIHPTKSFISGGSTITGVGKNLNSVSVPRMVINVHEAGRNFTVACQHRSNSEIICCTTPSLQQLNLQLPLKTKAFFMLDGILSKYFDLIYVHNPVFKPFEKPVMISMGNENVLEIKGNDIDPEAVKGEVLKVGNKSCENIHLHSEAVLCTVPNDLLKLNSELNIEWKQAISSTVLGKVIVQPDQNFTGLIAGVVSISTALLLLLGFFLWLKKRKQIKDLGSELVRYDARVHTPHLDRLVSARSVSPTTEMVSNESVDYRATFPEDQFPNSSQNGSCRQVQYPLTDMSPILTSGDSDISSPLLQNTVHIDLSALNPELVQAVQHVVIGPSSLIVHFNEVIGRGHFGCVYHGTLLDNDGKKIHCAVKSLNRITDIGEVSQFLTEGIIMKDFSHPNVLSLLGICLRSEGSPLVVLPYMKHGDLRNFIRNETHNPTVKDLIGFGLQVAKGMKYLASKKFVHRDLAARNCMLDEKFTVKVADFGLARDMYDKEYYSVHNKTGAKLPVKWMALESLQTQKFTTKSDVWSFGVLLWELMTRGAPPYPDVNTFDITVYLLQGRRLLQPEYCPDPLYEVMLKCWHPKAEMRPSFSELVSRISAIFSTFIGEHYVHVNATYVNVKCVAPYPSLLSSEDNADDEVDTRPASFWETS
# Sequence of MAP kinase-activated protein kinase 2 (P49137 whole entry): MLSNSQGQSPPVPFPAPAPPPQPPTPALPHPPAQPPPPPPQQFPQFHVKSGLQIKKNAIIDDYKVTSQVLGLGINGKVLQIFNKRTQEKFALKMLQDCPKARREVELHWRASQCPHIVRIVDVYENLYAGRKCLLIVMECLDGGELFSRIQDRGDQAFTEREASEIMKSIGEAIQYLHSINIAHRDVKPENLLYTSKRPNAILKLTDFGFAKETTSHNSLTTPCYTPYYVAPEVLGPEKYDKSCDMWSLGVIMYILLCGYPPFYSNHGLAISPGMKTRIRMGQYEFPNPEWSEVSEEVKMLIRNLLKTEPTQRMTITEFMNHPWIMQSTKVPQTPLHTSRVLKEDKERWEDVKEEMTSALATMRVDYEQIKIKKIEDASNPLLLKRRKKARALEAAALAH
structure (smiles),measurement,setting,value
Cc1c(OCCCN(C)C)cn2ncnc(Oc3ccc(NC(=O)CC(=O)Nc4ccc(F)cc4)cc3F)c12,IC50,[1],270 nM
O=C(Cc1ccc(F)cc1)NC(=O)Nc1ccc(Oc2ncnn3ccc(Cl)c23)c(F)c1,IC50,[2],> 2000 nM
Cc1c(OCCCN(C)C)cn2ncnc(Oc3ccc(NC(=O)c4c(F)cccc4F)cc3F)c12,IC50,[1],170 nM
NC1CCN(Cc2ccn3ncnc(Oc4ccc(NC(=O)NC(=O)Cc5ccc(F)cc5)cc4F)c23)CC1,IC50,[3],> 5000 nM
same,IC50,[4],> 5000 nM
same,IC50,[5],> 5000 nM
same,IC50,[6],> 5000 nM
same,IC50,[7],> 5000 nM
same,Stability,[8],0 nmol/min/mg
same,Papp,[9],< 1.5 ×10⁻⁶ cm/s
same,IC50,[10],> 5000 nM
same,bioavailability,[11],81%
same,Stability,[12],2 pmol/min
same,IC50,[13],200 nM
same,Cmax,[14],780 nM
same,IC50,[15],> 5000 nM
same,clearance,[16],25 mL/min/kg
same,IC50,[17],> 5000 nM
same,IC50,[18],> 5000 nM
Cc1c(OCCN2CCN(C)CC2)cn2ncnc(Oc3ccc(NC(=O)c4cc(F)ccc4F)cc3F)c12,IC50,[1],> 1000 nM
Cc1c(OCCN2CCN(C)CC2)cn2ncnc(Oc3ccc(NC(=O)c4ccccc4F)cc3F)c12,IC50,[1],840 nM
Cc1c(OCCN2CCN(C)CC2)cn2ncnc(Oc3ccc(NC(=O)c4c(F)cccc4F)cc3F)c12,IC50,[1],> 1000 nM
Cc1c(OCCCN(C)C)cn2ncnc(Oc3ccc(NC(=O)NC(=O)Cc4ccc(F)cc4)cc3F)c12,IC50,[1],68 nM
O=C(Cc1ccc(F)cc1)NC(=O)Nc1ccc(Oc2ncnn3ccc(CN4CCNCC4)c23)c(F)c1,solubility,[19],290 µg/mL
Cc1c(OCCN2CCN(C)CC2)cn2ncnc(Oc3ccc(NC(=O)c4cc(Cl)ccc4F)cc3F)c12,IC50,[1],270 nM
NC1CCC(=Cc2ccn3ncnc(Oc4ccc(NC(=O)NC(=O)Cc5ccc(F)cc5)cc4F)c23)CC1 (stereo unspecified),IC50,[1],140 nM
